# Measurements: patent US20250122190A1, “HALOGEN-SUBSTITUTED PYRIDAZINONE COMPOUND AND APPLICATION THEREOF” (MEDSHINE DISCOVERY INC., priority 2021, published 2025)
# Read-outs that look alike come from different tables or passages of the source.
# How the values were obtained:
# hTRPC5-T478C = biological target: T1, hTRPC5-T478C (Homo sapiens, UniProt Q9UL62); test: hTRPC5-T478C FLIPR calcium flux IC50 assay; assay type: cell-based; details: hTRPC5-T478C-HEK cells, Englerin A as channel agonist
# T1 sequence (Q9UL62 1-973): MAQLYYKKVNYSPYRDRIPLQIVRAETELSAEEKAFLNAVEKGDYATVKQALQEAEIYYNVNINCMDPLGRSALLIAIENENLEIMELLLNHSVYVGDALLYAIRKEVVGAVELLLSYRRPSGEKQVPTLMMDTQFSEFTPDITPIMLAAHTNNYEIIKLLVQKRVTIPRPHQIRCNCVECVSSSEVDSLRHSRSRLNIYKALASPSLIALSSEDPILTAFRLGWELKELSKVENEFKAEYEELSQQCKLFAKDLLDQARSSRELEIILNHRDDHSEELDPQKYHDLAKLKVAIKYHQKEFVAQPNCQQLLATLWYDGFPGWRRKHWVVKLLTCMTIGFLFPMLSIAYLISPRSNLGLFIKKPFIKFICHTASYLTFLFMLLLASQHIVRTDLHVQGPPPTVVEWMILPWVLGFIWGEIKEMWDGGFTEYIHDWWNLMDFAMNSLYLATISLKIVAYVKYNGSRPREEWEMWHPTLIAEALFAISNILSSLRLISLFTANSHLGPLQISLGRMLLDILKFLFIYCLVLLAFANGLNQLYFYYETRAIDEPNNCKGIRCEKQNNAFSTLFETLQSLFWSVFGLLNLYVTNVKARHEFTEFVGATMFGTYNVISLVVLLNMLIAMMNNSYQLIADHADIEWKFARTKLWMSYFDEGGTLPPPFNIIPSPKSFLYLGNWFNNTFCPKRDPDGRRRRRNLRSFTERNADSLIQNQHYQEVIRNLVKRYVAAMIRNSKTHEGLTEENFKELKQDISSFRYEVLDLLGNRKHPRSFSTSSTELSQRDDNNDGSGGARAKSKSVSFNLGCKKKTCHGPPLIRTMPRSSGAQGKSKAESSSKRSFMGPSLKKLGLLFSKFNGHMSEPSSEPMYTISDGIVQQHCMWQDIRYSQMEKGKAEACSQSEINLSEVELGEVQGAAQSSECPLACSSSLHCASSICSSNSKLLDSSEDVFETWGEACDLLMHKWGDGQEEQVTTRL
# Method: Cell culture: hTRPC5-T478C-HEK cells were cultured in a humid environment in 5% CO2 at 37° C.
# Cell culture medium ingredients: • DMEM, Supplier: Gibco, Catalog No. 11965-092; • FBS, Supplier: Gibco, Catalog No. 10099-141C, Concentration: 10%; • Pen/Strep, Supplier: Invitrogen, Catalog No. 15140-122, Concentration: 1%; • Zeocin, Supplier: Invitrogen, Catalog No. R25005, Concentration: 200 μg/mL; • Blasticidin S, Supplier: Invitrogen, Catalog No. R21001, Concentration: 5 μg/mL.
# In general, the TRPC5-T478C cell line was passaged three times weekly. The dilution factor for each passage was 1:3. Once the cells reached about 80% confluence in the T-75 flask, the cell line was digested with trypsin for about 1 minute and the cell suspension was removed from the flask with a pipette. Depending on the dilution ratio, the removed cell suspension would be transferred to another T-75 flask containing cell culture medium. Note that in order to maintain the logarithmic growth of the cells, the confluence of the cells should be maintained at the subconfluent stage and the cells should be passaged once every 2 to 3 days depending on the proliferation rate of the cell line.
# (1) Preparation of cell plate: the cells were separated according to the above-mentioned passaging and the cell density and viability were determined using a cell counter. The volume of the cell suspension was adjusted with a cell culture medium. After the density reached to the plating density, 1 μg/mL tetracycline was added to induce hTRPC5-T478C channel expression. The induced hTRPC5-T478C cells were then seeded onto poly-D-lysine (PDL)-coated 384-well plates at a density of 20000 cells/well (30 μL/well). Then the cells were cultured overnight in a cell culture incubator.
# (2) Preparation of compound plate: the compounds were generally diluted with DMSO, prepared into a mother liquor and stored in a −20° C. refrigerator. A compound plating program was set on the ECHO processor, and the compounds were plated with ECHO according to the concentration gradient that was already set. In general, 9 concentrations were included with the highest concentration at 10 μM, 3-fold dilution, and 2 replicate wells. Englerin A was used as the channel agonist.
# (3) On-machine testing: the cell plates and compound plates were prepared according to the above-mentioned methods. After the cell confluence of the cell plate reached 80%-90%, the cells were removed from the incubator and the testing started. Ca5 dye (Molecular Devices #R8185) was formulated with test buffer. After the cell plate culture medium was removed with Bravo, 25 μL of Ca5 dye was added to each well, and the plate was incubated for 1 hour. After 1 hour, the cell plate and compound plate were placed in FLIPR^TETRA (Molecular Devices, USA) for FLIPR detection.
# Data analysis was performed using Excel 2013 (Microsoft, USA) software and GraphPad Prism 6.01 software. The maximum signal was generated by FLIPR software. Data analysis was performed using Excel (2013) and Prism 6.01. Data quality and data stability were controlled using S/B>2.50 and Z factor>0.50. The calculation formula was as follows: S/B=Avg100%/Avg0%; Z factor=1−(3*SD100%+3*SDO %)/|Avg100%-Avg0%.
# [1] = In vivo PK studies, intravenous injection; details: rat, plasma, male SD rats; for Vd: read-out: Vdss
# Method: Male SD rats were used as test animals. After intravenous injection, the blood drug concentration of the compounds was determined and the pharmacokinetic behavior was evaluated.
# Three healthy adult male SD rats were selected. The test compounds were mixed with an appropriate amount of a vehicle of the intravenous injection group and prepared into a 0.5 or 1 mg/mL clear solution, which was filtered with a […] microporous filter membrane for later use. After intravenous administration to the rats at 0.5 or 1 mg/kg, whole blood was collected at 0.083, 0.25, 0.5, 1, 2, 4, 8, 24 hours after administration and placed in EDTA-K2 anticoagulant tubes, and the mixture was vortexed thoroughly and centrifuged at 3200 g, 4° C. for 10 minutes to obtain the plasma. The LC-MS/MS method was used to determine the drug concentration, and the Phoenix WinNonlin 6.3 pharmacokinetic software was used to calculate the relevant pharmacokinetic parameters by the non-compartmental model linear logarithmic trapezoidal method. • Vehicle 1:10% DMSO/10% Kolliphor® HS 15/80% (20% sulfobutyl-β-cyclodextrin); • Vehicle 2:10% DMSO+20% polyoxyethylenated castor oil+70% water; • Vehicle 3:5% DMSO+10% Kolliphor® HS 15+85% physiological saline; • Vehicle 4:10% DMSO+60% polyethylene glycol 400+30% (10% aqueous hydroxypropyl-β-cyclodextrin solution).
Structure (SMILES),IC50 (hTRPC5-T478C),"AUC(0-t) ([1]; 1 mg/kg, 1 mpk)","clearance ([1]; 1 mg/kg, 1 mpk)","half-life ([1]; 1 mg/kg, 1 mpk)","Vd ([1]; 1 mg/kg, 1 mpk)","AUC(0-t) ([1]; 0.5 mg/kg, 0.5 mpk)","clearance ([1]; 0.5 mg/kg, 0.5 mpk)","half-life ([1]; 0.5 mg/kg, 0.5 mpk)","Vd ([1]; 0.5 mg/kg, 0.5 mpk)"
Nc1nc2c(c(Sc3ccc(F)cc3C(F)(F)F)n1)CCN(c1cn[nH]c(=O)c1Cl)C2 [Compound WX013],55.7 nM,9.13 µM·h,3.94 mL/min/kg,159 min,0.88 L/kg,,,,
O=c1[nH]ncc(N2CCc3c(ncnc3Oc3ccc(F)cc3Br)C2)c1Cl [Compound WX004],40 nM,8.26 µM·h,4.6 mL/min/kg,121 min,0.77 L/kg,,,,
CC(F)(F)c1cc(F)ccc1Oc1ncnc2c1CCN(c1cn[nH]c(=O)c1Cl)C2 [Compound WX010],71 nM,4.75 µM·h,7.81 mL/min/kg,104 min,1.13 L/kg,,,,
COCc1nc2c(c(Oc3ccc(F)cc3C(F)(F)F)n1)CCN(c1cn[nH]c(=O)c1Cl)C2 [Compound WX011],80 nM,4.05 µM·h,8.29 mL/min/kg,87.6 min,1.06 L/kg,,,,

# These reach a lower IC50 (hTRPC5-T478C). Values come first.
IC50 (hTRPC5-T478C),"AUC(0-t) ([1]; 1 mg/kg, 1 mpk)","clearance ([1]; 1 mg/kg, 1 mpk)","half-life ([1]; 1 mg/kg, 1 mpk)","Vd ([1]; 1 mg/kg, 1 mpk)","AUC(0-t) ([1]; 0.5 mg/kg, 0.5 mpk)","clearance ([1]; 0.5 mg/kg, 0.5 mpk)","half-life ([1]; 0.5 mg/kg, 0.5 mpk)","Vd ([1]; 0.5 mg/kg, 0.5 mpk)",Structure (SMILES)
37 nM,,,,,2.38 µM·h,6.52 mL/min/kg,155 min,1.37 L/kg,O=c1[nH]ncc(N2CCc3c(ncnc3Oc3ccc(F)cc3C(F)(F)F)C2)c1Br [Compound WX009]
27 nM,1.97 µM·h,18.2 mL/min/kg,110 min,2.28 L/kg,,,,,O=c1[nH]ncc(N2CCc3c(ncnc3Sc3ccc(F)cc3C(F)(F)F)C2)c1Cl [Compound WX002]
24 nM,3.33 µM·h,10.1 mL/min/kg,139 min,1.62 L/kg,,,,,O=c1[nH]ncc(N2CCc3c(nc(CO)nc3Sc3ccc(F)cc3C(F)(F)F)C2)c1Cl [Compound WX012]
